Reference: US20110178015A1, “METHODS OF TREATMENT USING BIASED LIGANDS FOR RECEPTORS SUCH AS THE PTH RECEPTOR” (priority 2007, published 2011)
Entries after “also recorded” stand apart in the source; their conditions may differ.

What was measured:
[1] = test system: osteocalcin, RANKL and OPG gene expression; assay: Calvarial gene expression of bone regulatory proteins by quantitative RT-PCR; assay type: in vivo, mice
Method: FIG. 6 Distinct β-arrestin- and G protein-dependent Pathways Contribute to PTH Receptor-stimulated Gene Expression of Bone Regulatory Proteins. To determine the contributions of β-arrestin mediated signaling, to PTH receptor stimulated transcription of bone regulatory proteins, RNA was isolated from the calvaria of WT and β-arrestin 2−/− mice treated with vehicle, PTH(1-34) (PTH), or PTH-βarr. Gene expression was analyzed by quantitative RT-PCR. (a) Consistent with bone formation PTH and PTH-βarr increased osteocalcin expression in WT calvaria. […] (b) and (c). […] Data represent the mean±SEM from six independent experiments. (***, P<0.001; **, P<0.01; *, P<0.05; compared with vehicle treated WT mice; †††, P<0.001; †, P<0.05 compared with vehicle treated β-arrestin 2−/− mice).
To determine the contribution of β-arrestin mediated signaling to PTH1R-stimulated transcription of bone regulatory proteins, calvarial RNA was isolated from WT and β-arrestin 2−/− mice treated with PTH(1-34), PTH-βarr or vehicle. Gene expression for osteocalcin, as well as receptor activator of nuclear factor-KB ligand (RANKL) and osteoprotegrin (OPG), which activate and inhibit osteoclastic bone resorption respectively, was analyzed by quantitative RTPCR (FIG. 6 A-C).

endogenous PTH1R = target: T1, endogenous PTH1R (Mus musculus, UniProt P41593); assay: cAMP accumulation in primary osteoblasts (POB); assay type: cell-based, mice; details: 100 nM PTH(1-34) or 1 μM PTH-βarr, 5 min
T1 construct: stimulation of endogenous PTH1R in primary murine osteoblasts (POB); endogenous in cells; host or cells: primary osteoblasts (POB) from WT and β-arrestin 2−/− C57BL/6 mice
T1 sequence (P41593 27-591): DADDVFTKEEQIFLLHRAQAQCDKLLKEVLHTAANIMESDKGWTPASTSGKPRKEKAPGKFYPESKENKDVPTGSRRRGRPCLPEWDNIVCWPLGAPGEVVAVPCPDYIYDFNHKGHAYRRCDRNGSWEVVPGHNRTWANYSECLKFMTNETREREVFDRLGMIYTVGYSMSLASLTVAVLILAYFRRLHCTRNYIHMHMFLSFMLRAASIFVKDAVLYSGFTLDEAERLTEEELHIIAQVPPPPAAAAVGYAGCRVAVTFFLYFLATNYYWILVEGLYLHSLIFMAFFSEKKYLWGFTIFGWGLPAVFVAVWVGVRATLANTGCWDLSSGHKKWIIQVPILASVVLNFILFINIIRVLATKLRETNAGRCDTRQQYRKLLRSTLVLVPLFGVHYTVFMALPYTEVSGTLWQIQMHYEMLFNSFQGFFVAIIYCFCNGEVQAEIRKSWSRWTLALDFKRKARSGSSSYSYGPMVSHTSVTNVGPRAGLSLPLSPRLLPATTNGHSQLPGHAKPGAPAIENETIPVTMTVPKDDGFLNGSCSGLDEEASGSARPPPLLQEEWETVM
Method: FIG. 1. […] Cells were treated with 100 nM PTH(1-34) (PTH) or 1 μM PTH-βarr. […] Data correspond to the mean±SEM from four independent experiments. (***, P<0.001 compared with the nonstimulated WT POB; †††, P<0.001; ††, P<0.01 compared with the non-stimulated β-arrestin 2−/− POBs).
The increased basal cAMP in the β-arrestin cells is likely due to the loss of β-arrestin mediated desensitization of PTH1R and/or other Gs coupled 7TMRs.
There was no significant difference in cAMP generated between WT and β-arrestin 2−/−POB at 5 min.

[2] = test system: WT and β-arrestin 2−/− mice; assay: 24 hour urine deoxypyridinoline (DPD), marker of bone resorption; assay type: in vivo; details: 4 weeks of treatment
Method: FIG. 5. PTH-βarr increases serum osteocalcin and has no effect on urine Deoxypyridinoline (DPD) excretion. (a) Serum osteocalcin, a biochemical marker of bone formation was measured in WT and β-arrestin 2−/− mice after 4 weeks of treatment with vehicle, PTH (1-34) (PTH) or PTH-βarr. […] There was no increase in serum osteocalcin in the arrestin 2−/− mice treated with PTH-βarr compared to placebo. […] (b) 24 hour urine DPD, a marker of bone degradation and bone resorption, was also measured in WT and β-arrestin 2−/− mice after 4 weeks of treatment with vehicle, PTH or PTH-βarr. […] Data represent the mean±SEM of at least 7 independent mouse measurements. (***, P<0.001; *, P<0.05; compared with vehicle treated WT mice; †††, P<0.001; ††, P<0.01 compared with vehicle treated β-arrestin 2−/− mice).
265. 24 hour urine deoxypyridinoline (DPD), a marker of bone degradation and bone resorption, was also measured. […] The increase in urine DPD excretion in the PTH(1-34) treated β-arrestin 2−/− mice compared to WT further supports the hypothesis that osteoblast-osteoclast coupling is meditated primarily through G protein dependent mechanisms that are disinhibited in the absence of β-arrestin 2.

Substance	OPG mRNA expression vs vehicle ([1]; WT mice, calvaria)	RANKL mRNA expression vs vehicle ([1]; WT mice, calvaria)	osteocalcin mRNA expression vs vehicle ([1]; WT mice, calvaria)	OPG mRNA expression vs vehicle ([1]; WT mice; calvaria; Tyr34)-PTH(7-34))	OPG mRNA expression vs vehicle ([1]; β-arrestin 2−/− mice, calvaria)	RANKL mRNA expression vs vehicle ([1]; β-arrestin 2−/− mice, calvaria)	osteocalcin mRNA expression vs vehicle ([1]; β-arrestin 2−/− mice, calvaria)	cAMP accumulation (endogenous PTH1R; WT POB)	cAMP accumulation (endogenous PTH1R; β-arrestin 2−/− POB)	24 hour urine DPD vs vehicle ([2]; WT mice)	24 hour urine DPD vs vehicle ([2]; β-arrestin 2−/− mice)	osteocalcin mRNA expression vs vehicle ([1]; WT mice, calvaria, listed as PTH)	osteocalcin mRNA expression vs vehicle ([1]; β-arrestin 2−/− mice, calvaria, listed as PTH)	cAMP accumulation (endogenous PTH1R; WT POB, listed as PTH)	cAMP accumulation (endogenous PTH1R; β-arrestin 2−/− POB, listed as PTH)	24 hour urine DPD vs vehicle ([2]; β-arrestin 2−/− mice, listed as PTH)
(D-Trp12, Tyr34)-PTH(7-34) [PTH-βarr]	did not affect	did not affect	increases	significantly increases	Neither PTH nor PTH-βarr treatment had a significant effect	Neither PTH nor PTH-βarr treatment had a significant effect	decrease	unable to stimulate cAMP; also recorded: did not increase cAMP	decreases basal cAMP levels; also recorded: significantly decreased	no significant effect	no significant effect	–	–	–	–	–
PTH(1-34) [reference compound]	increases	increases	increases	–	Neither PTH nor PTH-βarr treatment had a significant effect	Neither PTH nor PTH-βarr treatment had a significant effect	–	robust increases	robust increases	significantly increased	significantly increased	increased	significant increase; also recorded: significantly increased	robust increase	robust increase	increase
